Source: PMC12748958 (Nature Communications, 2025)

Biological target: T1, PsiR-M2 (Agrobacterium fabrum, UniProt A9CH24, R109G/V134A)
T1 sequence (A9CH24 1-359 R109G/V134A): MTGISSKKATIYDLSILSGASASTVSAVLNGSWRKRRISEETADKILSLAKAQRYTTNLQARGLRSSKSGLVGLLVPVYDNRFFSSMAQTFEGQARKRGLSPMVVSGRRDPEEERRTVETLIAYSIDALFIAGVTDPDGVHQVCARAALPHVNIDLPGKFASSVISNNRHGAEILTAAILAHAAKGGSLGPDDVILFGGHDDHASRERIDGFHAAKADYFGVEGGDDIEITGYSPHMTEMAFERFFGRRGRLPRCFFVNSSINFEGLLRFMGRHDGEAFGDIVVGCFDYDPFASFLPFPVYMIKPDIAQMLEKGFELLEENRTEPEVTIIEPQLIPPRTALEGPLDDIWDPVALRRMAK
Assay: microscale thermophoresis
Assay type: binding

O=C(CO)[C@H](O)[C@H](O)[C@H](O)CO [D-allulose]
microscale thermophoresis (MST) on purified protein: After purifying PsiR-WT, M2, and M4 from E. coli BL21(DE3) via His-tag affinity chromatography
